Measurements from publication PMC5071857, “A unique peptide deformylase platform to rationally design and challenge novel active compounds” (Scientific Reports, 2016).
Where two headings read alike, the source gives them in different places.

Experiments:
[1] = tested on: E. coli AG100; assay: MIC by microdilution, E. coli AG100; assay type: cell-based; conditions: 18 h at 37 °C, average of three assays; for MIC: Escherichia coli, AG100, without PMBN; for MIC AG100: with PMBN at 1/5 of its MIC
Text: (§1) Two E. coli strains, one B. subtilis strain, one S. aureus strain, one E. faecalis strain, one S. agalactiae strain and three Enterobacter aerogenes strains previously described were used. Briefly, AG100 was an E. coli wild type strain and AG100A its acrAB^- derivative. EA289 was a Kan^s derivative of an E. aerogenes multi-drug resistant (MDR) clinical isolate overexpressing AcrAB-TolC efflux pumps, and EA294 and EA298 its acrAB^- and tolC^- derivatives respectively. Strains were routinely grown at 37 °C on Luria-Bertani (LB) agar or in Mueller-Hinton II broth (MH), supplemented with kanamycine (50 μg.mL^−1) for AG100A, EA294 and EA298.
(§2) MIC values of antibiotics were determined by the microdilution method in liquid MH media in microplates in the absence or presence of chemosensitizers/modulators (e.g. PMBN, PAβN), as previously described. Permeabilization, blocking of efflux pumps, and isolates with different levels of porin or efflux expression were used to assess the involvement of the membrane barrier in antibiotic activity.
(§3) Susceptibilities were determined in 96-wells microplates with an inoculum of 2 × 10^5 cfu in 200 μL of MH broth containing two-fold serial dilutions of each antibiotics or compounds. Molecules were tested alone or in combination with other molecules in equimolar ratio. MICs were realized in the absence and in the presence of a membrane permeabilizer, the polymyxine B nonapeptide (PMBN) used at 51.2 mg/L (1/5 or 1/10 of its direct MIC previously determined). Actinonin and ciprofloxacin were used as internal antibiotic reference. […] Each test was systematically performed in triplicate. The average of three independent assays is presented in μg/mL in the respective tables.

[2] = tested on: E. faecalis EFA 103.214; assay: MIC, E. faecalis EFA 103.214; assay type: cell-based; conditions: Enterococcus faecalis, EFA103.214, read-out: MIC E. faecalis EFA 103.214
Text: as §1, §2, §3

[3] = tested on: E. coli AG100A (AcrAB- derivative); assay: MIC by microdilution, E. coli AG100A; assay type: cell-based; conditions: for MIC: Escherichia coli, 18 h, read-out: MIC AG100A; for MIC AG100A: with PMBN at 1/5 of its MIC, 18 h at 37 °C, average of three assays
Text: as §1, §2, §3

[4] = target: T1, EcPDF (Escherichia coli, UniProt P0A6K3); assay: PDF inhibition, formate dehydrogenase-coupled spectrophotometric assay (EcPDF); assay type: biochemical; conditions: for EcPDF KI/KI*app: enhancement potency (slow tight-binding)
T1 construct: made in house
T1 sequence (P0A6K3 whole entry): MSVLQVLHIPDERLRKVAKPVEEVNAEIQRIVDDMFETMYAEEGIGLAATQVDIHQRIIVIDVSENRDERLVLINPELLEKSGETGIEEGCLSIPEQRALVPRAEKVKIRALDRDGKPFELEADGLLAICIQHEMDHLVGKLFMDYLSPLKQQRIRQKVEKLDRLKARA
Description: (§4) The formate released by the deformylation reaction is used by FDH to convert NAD in NADH, the production of which being measured over time at 340 nm and controlled temperature (37 °C). The 200 μL reaction mixture contained 50 mM HEPES-NaOH pH7.5, 12 mM NAD^+, 4.5 U/mL FDH, 1 mM NiCl2 and PDF enzyme (either 40 nM SaPDF or 10 nM EcPDF or 100 nM AtPDF1B) previously diluted in presence of 0.1 mg/mL BSA. The reaction was started by addition of 1–6 mM Fo-Met-Ala-Ser. Kinetics parameters (kcat, Km) were derived from iterative non-linear least square fits using the Michaelis-menten equation based on the experimental data (Sigma-Plot, Kinetics module).
(§5) 1/KI*app is the slope of the v0/vi curve in function of compound concentration, where v0 and vi are the initial reaction rates in absence and presence of compound, respectively.
(§6) Determination of KI values was performed with a slightly modified protocol: reaction was started by addition of enzyme instead of Fo-Met-Ala-Ser, the latter being directly added to the mixture containing increasing concentrations of each compound. No pre-incubation of enzyme in presence of compound was done. 1/KI is the slope of the v0/vi curve in function of compound concentration, where v0 and vi are the initial reaction rates in absence and presence of compound respectively.

[5] = tested on: S. aureus SA113; assay: MIC, S. aureus SA113; assay type: cell-based; conditions: Staphylococcus aureus
Text: as §1, §2, §3

[6] = tested on: B. subtilis 168; assay: MIC, B. subtilis 168; assay type: cell-based; conditions: Bacillus subtilis
Text: as §1, §2, §3

[7] = target: T2, AtPDF1B (Arabidopsis thaliana, UniProt Q9FUZ2); assay: PDF inhibition, formate dehydrogenase-coupled spectrophotometric assay (AtPDF1B); assay type: biochemical; conditions: for IC50 / Ki: 100 nM AtPDF1B; for IC50: 2 mM Fo-Met-Ala-Ser, 10 min pre-incubation at 37 °C; for Ki: PDFI pre-incubated with enzyme 10 min at 37 °C, started by 2 mM Fo-Met-Ala-Ser, read-out: AtPDF1B KI*app; for AtPDF1B KI/KI*app: enhancement potency (slow tight-binding)
T2 construct: made in house
T2 sequence (Q9FUZ2 83-273): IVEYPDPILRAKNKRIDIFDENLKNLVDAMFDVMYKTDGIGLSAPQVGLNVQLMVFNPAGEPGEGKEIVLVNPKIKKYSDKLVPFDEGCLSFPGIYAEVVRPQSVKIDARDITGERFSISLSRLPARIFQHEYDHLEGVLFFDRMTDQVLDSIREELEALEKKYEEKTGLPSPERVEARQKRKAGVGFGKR
Description: as §4, with “Enzymatic activity was measured by a spectrophotometric assay where peptide deformylase activity is coupled to that of formate dehydrogenase. The formate” for “The formate”
as §5, §6

[8] = target: T3, SaPDF (Streptococcus agalactiae serotype III, UniProt Q8E378, S2A); assay: biochemical; conditions: SaPDF KI*app, PDFI pre-incubated with enzyme 10 min at 37 °C, started by 2 mM Fo-Met-Ala-Ser; 40 nM SaPDF
T3 construct: the recombinant protein contains all residues of the 204 amino acids mature protein; made in house; host or cells: E. coli Rosetta 2(DE3)pLysS
T3 sequence (Q8E378 whole entry S2A): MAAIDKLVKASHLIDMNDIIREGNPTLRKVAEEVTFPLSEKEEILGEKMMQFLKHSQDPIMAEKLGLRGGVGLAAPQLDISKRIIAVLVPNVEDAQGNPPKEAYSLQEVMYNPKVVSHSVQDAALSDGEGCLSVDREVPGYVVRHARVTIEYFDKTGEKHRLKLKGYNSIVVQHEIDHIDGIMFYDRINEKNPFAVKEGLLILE

[9] = target: T3, SaPDF; assay: biochemical; conditions: for Ki: SaPDF KI, no pre-incubation, assay initiated by addition of enzyme, 40 nM SaPDF, 37 °C
Description: as §4, with “Enzymatic activity was measured by a spectrophotometric assay where peptide deformylase activity is coupled to that of formate dehydrogenase. The formate” for “The formate”
as §5, §6

[10] = tested on: E. aerogenes Ea294, Ea289 derivative AcrAB-; assay: MIC by microdilution, E. aerogenes Ea294; assay type: cell-based, Enterobacter aerogenes; conditions: for MIC Ea294: +PMBN at 1/5 of its MIC, average of three assays; for MIC: Klebsiella aerogenes, 18 h, read-out: MIC Ea294
Text: as §1, §2, §3

[11] = tested on: E. aerogenes Ea289, MDR strain; assay: MIC by microdilution, E. aerogenes Ea289; assay type: cell-based, Enterobacter aerogenes; conditions: for MIC Ea289: +PMBN at 1/5 of its MIC, average of three assays; for MIC: Klebsiella aerogenes, 18 h, read-out: MIC Ea289
Text: as §1, §2, §3

[12] = tested on: E. aerogenes Ea298, Ea289 derivative tolC-; assay: MIC by microdilution, E. aerogenes Ea298; assay type: cell-based, Enterobacter aerogenes; conditions: Klebsiella aerogenes, 18 h, read-out: MIC Ea298
Text: as §1, §2, §3

[13] = target: T2, AtPDF1B; assay: PDF inhibition, formate dehydrogenase-coupled spectrophotometric assay (AtPDF1B); assay type: biochemical; conditions: no pre-incubation, assay initiated by addition of enzyme; 100 nM AtPDF1B; 37 °C
[14] = 10 nM EcPDF, 2 mM Fo-Met-Ala-Ser, 10 min pre-incubation at 37 °C, read-out: IC50 EcPDF
[15] = EcPDF KI*app, PDFI pre-incubated with enzyme 10 min at 37 °C, started by 2 mM Fo-Met-Ala-Ser, 10 nM EcPDF
[16] = EcPDF KI, no pre-incubation, assay initiated by addition of enzyme, 10 nM EcPDF, 37 °C

Structure (SMILES)	MIC [1]	MIC AG100 [1]	MIC [2]	MIC [3]	MIC AG100A [3]	IC50 [4, 14]	MIC [5]	MIC [6]	IC50 [7]	Ki [7]	AtPDF1B KI/KI*app [7]	Ki [8]	IC50 [9]	Ki [9]	IC50 [4]	Ki [4, 15]	Ki [4, 16]	EcPDF KI/KI*app [4]	MIC Ea294 [10]	MIC [10]	also measured
CCCC[C@H](CC(=O)NO)c1nc(C(=O)N[C@H](C(=O)OC)C(C)C)co1 [AT009]	> 64 µg/mL	>64 µg/mL	> 64 µg/mL	> 64 µg/mL	>64 µg/mL	0.33 µM	> 64 µg/mL	> 64 µg/mL	–	–	–	–	–	–	–	–	–	–	–	–	–
O=C(C[C@@H](CC1CCCC1)c1nc(Cc2coc3ccccc23)no1)NO [AT019]	> 64 µg/mL	2 µg/mL	–	16 µg/mL	0.5 µg/mL	–	–	–	0.077 ± 0.005 µM	0.054 ± 0.002 µM	5	0.0075 ± 0.002 µM	0.007 ± 0.001 µM	0.065 ± 0.006 µM	0.006 ± 0.001 µM	0.0011 ± 0.0003 µM	0.076 ± 0.004 µM	69	2 µg/mL	128 µg/mL	MIC Ea289 [11]: 16 µg/mL; MIC [11]: > 128 µg/mL; MIC [12]: 64 µg/mL; Ki [13]: 0.263 ± 0.026 µM
CCCCC(CC(=O)NO)c1nc(C(N)=O)co1 (stereo not shown) [AT007]	> 64 µg/mL	>64 µg/mL	> 64 µg/mL	> 64 µg/mL	>64 µg/mL	0.74 µM	> 64 µg/mL	> 64 µg/mL	–	–	–	–	–	–	–	–	–	–	–	–	–
CCCC[C@H](CC(=O)NO)c1nc(C(=O)N[C@H](C(N)=O)C(C)C)co1 [AT010]	> 64 µg/mL	>64 µg/mL	> 64 µg/mL	> 64 µg/mL	>64 µg/mL	0.42 µM	> 64 µg/mL	> 64 µg/mL	–	–	–	–	–	–	–	–	–	–	–	–	–
O=C(C[C@@H](CC1CCCC1)c1nc(Cc2ccc3c(c2)OCO3)no1)NO [AT020]	> 64 µg/mL	8 µg/mL	–	16 µg/mL	4 µg/mL	–	–	–	0.119 ± 0.01 µM	0.123 ± 0.005 µM	2	0.0085 ± 0.003 µM	0.012 ± 0.003 µM	0.063 ± 0.003 µM	0.007 ± 0.002 µM	0.0019 ± 0.0002 µM	0.08 ± 0.003 µM	42	8 µg/mL	128 µg/mL	MIC Ea289 [11]: 32 µg/mL; MIC [11]: > 128 µg/mL; MIC [12]: 128 µg/mL; Ki [13]: 0.238 ± 0.03 µM
